From patent US8148083B2, “Methods of screening for TRPM4 modulators of insulin secretion” (The Queen's Medical Center, priority 2006, dated 2012)
Where two headings read alike, the source gives them in different places.

Experiments:
TRPM4 [1] = target: T1, TRPM4 (Homo sapiens, UniProt Q8TD43); experiment: Whole-cell patch-clamp of TRPM4 currents in TrexHEK-293 cells overexpressing TRPM4, buffered [Ca2+]i; type: cell-based; conditions: flag-TRPM4-TrexHEK293, current at +80 mV
T1 construct: expressed in transfected cells; host or cells: TrexHEK-293 (tetracycline-inducible HEK-293)
T1 sequence (Q8TD43 whole entry): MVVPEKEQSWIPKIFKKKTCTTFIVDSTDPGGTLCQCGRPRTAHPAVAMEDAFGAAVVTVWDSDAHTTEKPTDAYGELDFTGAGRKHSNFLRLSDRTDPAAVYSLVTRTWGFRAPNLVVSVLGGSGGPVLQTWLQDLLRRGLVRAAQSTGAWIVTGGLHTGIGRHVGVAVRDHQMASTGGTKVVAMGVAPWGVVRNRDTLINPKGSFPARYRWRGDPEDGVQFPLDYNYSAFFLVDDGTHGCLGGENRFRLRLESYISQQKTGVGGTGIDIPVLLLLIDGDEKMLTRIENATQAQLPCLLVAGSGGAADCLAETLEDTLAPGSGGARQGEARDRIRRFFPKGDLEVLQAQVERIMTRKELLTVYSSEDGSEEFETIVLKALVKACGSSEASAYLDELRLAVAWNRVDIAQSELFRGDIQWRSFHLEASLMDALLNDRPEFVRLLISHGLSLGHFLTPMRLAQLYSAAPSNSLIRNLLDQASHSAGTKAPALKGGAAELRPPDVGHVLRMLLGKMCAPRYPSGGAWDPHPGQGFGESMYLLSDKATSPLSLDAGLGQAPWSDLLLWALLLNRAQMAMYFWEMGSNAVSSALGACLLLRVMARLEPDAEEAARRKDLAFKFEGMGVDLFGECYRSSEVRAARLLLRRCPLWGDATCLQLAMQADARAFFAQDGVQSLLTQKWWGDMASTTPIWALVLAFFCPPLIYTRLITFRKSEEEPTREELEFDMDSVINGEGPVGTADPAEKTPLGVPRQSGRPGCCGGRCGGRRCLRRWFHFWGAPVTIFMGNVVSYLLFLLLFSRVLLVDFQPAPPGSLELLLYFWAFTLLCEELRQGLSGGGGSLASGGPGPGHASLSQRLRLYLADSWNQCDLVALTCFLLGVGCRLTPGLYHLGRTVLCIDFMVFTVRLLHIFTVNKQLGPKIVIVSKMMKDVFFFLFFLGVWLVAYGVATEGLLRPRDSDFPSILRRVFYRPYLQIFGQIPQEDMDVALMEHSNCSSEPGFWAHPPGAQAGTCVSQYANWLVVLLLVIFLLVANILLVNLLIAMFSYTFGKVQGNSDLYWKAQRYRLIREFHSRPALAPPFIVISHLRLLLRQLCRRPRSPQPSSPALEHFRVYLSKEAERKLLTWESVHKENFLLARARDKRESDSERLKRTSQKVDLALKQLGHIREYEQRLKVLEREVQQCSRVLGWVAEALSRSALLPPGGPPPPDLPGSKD

TRPM4 [2] = target: T2, TRPM4 (Rattus norvegicus, UniProt Q9ESQ5); experiment: Whole-cell patch-clamp of TRPM4 currents in INS-1 cells perfused with buffered [Ca2+]i; type: cell-based; parameters: The channel was detected in INS-1 and RINm5F cell lines; endogenous in cells; host or cells: INS-1 (rat insulinoma beta-cell line); conditions: current amplitude at +80 mV
T2 sequence (Q9ESQ5 whole entry, the tested form may be a part): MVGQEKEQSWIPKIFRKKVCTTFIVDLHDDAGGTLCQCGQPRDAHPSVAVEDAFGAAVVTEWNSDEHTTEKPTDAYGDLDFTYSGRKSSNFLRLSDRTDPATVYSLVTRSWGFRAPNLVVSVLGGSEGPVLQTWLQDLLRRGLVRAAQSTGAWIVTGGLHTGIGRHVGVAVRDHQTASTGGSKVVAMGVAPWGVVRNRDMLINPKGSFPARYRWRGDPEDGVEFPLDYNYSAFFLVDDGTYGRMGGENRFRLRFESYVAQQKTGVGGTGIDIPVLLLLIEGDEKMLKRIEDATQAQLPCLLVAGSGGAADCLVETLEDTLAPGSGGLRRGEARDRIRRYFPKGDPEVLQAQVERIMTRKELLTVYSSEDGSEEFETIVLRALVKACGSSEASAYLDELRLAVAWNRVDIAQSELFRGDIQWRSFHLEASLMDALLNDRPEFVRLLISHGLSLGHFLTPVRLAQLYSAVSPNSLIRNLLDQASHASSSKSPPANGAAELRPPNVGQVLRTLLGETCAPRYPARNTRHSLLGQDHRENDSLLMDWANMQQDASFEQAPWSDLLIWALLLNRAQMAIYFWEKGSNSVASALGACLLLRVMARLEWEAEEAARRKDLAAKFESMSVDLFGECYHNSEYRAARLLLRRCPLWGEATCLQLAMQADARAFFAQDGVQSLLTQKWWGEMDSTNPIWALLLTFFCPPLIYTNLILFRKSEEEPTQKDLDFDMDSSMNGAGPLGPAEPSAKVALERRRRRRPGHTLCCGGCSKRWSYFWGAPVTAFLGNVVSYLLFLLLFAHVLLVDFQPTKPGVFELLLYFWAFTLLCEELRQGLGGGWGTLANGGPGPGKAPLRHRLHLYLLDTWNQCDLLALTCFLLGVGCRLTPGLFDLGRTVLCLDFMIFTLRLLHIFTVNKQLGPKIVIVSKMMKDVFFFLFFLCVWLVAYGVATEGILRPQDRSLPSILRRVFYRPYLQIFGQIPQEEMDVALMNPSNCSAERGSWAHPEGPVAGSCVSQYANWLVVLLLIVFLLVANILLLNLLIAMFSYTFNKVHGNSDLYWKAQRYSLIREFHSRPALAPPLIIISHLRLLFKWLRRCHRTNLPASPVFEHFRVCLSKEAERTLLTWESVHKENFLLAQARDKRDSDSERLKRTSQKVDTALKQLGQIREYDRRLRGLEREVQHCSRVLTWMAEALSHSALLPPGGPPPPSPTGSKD

TRPM4 [3] = target: T2, TRPM4; experiment: Glibenclamide on TRPM4 currents in INS-1 cells; conditions: pressure applied
TRPM4 [4] = experiment: Agonist-induced TRPM4 currents in TrexHEK293 cells overexpressing TRPM4 (double carbachol application); type: cell-based, human
Description: Patch-clamp experiments were performed in the tight-seal whole-cell configuration at 21-25 ° C. High-resolution current recordings were acquired by a computer-based patch-clamp amplifier system (EPC-9, HEKA, Lambrecht, Germany). Patch pipettes had resistance between 3-6 MΩ after filling with the standard intracellular solution. […] Currents were filtered at 2.9 kHz and digitized at 100 μs intervals. Capacitive currents and series resistance were determined and corrected before each voltage ramp using the automatic capacitance compensation of the EPC-9. The low-resolution temporal development of membrane currents was assessed by extracting the current amplitude at -80 mV or +80 mV from individual ramp current records. Data analysis, statistical analysis and graphical display of patch-clamp experiments were done using the Igor […] software program (Wavemetrics). […] Cells were treated with carbachol twice according to protocol used in the calcium measurement experiments (n=5). First, to induce exocytosis of TRPM4 containing vesicles and second to activate the new pool of TRPM4 present in the plasma membrane. Utilizing Ca^2+ imaging techniques, fura-2-AM loaded cells were stimulated with 1 mM carbachol for 200 s followed by washout and a second stimulation (FIG. 9A). […]

[5] = 600 s, read-out: KD, dose-response fit of TRPM4 activation, secondary phase

[Ca+2] [Ca^2+]
Kd (TRPM4 [1]; [5]): 1.3 µM | Kd (TRPM4 [1]; peak of first phase, read-out: KD, dose-response fit of TRPM4 activation, first phase): 1.2 µM | Kd (TRPM4 [2]; 80 s, read-out: KD, dose-response fit of TRPM4 activation, first phase): 1.7 µM | Kd (TRPM4 [2]; [5]): 1.2 µM

COc1ccc(Cl)cc1C(=O)NCCc1ccc(S(=O)(=O)NC(=O)NC2CCCCC2)cc1 [Glibenclamide, glibenclamide]
effect on TRPM4 channels (TRPM4 [3]): activates TRPM4 channels

C[N+](C)(C)CCOC(N)=O [carbachol]
TRPM4 current amplitude (TRPM4 [4]; first application of 1 mM carbachol): less than 1 nA | TRPM4 current amplitude (TRPM4 [4]; second carbachol application after washout): around 10 nA
